# Source: patent publication US20200392126A1, “ISOXAZOLYL COMPOUNDS AS RECEPTOR MODULATING COMPOUNDS AND METHODS AND USES THEREOF” (BIONOMICS LIMITED, priority 2017, published 2020)
# Like-named read-outs stand apart in the source and are kept apart here.
# Target: T1, hnAChR α7/ric3 (Homo sapiens, UniProt P36544)
# T1 construct: expressed in transfected cells
# Experiment: IonFlux HT electrophysiological recording of hnAChR α7/ric3 currents, inhibition of ACh (200 μM, EC80) peak current
# Assay type: cell-based
# Experimental: All wells included a final DMSO concentration of 0.33% including all control wells.
# The solutions for recording hnAChR α7/ric3 currents were:
# All recordings were obtained from a holding potential of −60 mV.
# Compounds were assayed using bump-in protocol. The compound addition sequence that was used for all additions was the same for all assays. One addition of the EC80 concentration of ACh (200 μM) was added to establish baseline response. The test compounds were tested on cells in increasing concentrations of 0.12, 0.37, 1.1, 3.3, 10 μM±200 μM ACh for all compounds. Each compound was applied for one minutes followed by the addition of 200 μM ACh for 1 second.
# Peak inward currents in response to the ACh additions in the presence of increasing concentrations of compound were measured.
# Potentiation of ACh Response=(I^Compound^+^ACh/I^ACh)
# All data were first exported to an Excel compatible data file and then analyzed using Graph Pad Prism software.
# [1] = hnAChR α7/ric3, 0.12-10 μM compound, 1 min preincubation, then 200 μM ACh for 1 s, holding potential −60 mV, read-out: IC50
# T1 sequence (P36544 23-502): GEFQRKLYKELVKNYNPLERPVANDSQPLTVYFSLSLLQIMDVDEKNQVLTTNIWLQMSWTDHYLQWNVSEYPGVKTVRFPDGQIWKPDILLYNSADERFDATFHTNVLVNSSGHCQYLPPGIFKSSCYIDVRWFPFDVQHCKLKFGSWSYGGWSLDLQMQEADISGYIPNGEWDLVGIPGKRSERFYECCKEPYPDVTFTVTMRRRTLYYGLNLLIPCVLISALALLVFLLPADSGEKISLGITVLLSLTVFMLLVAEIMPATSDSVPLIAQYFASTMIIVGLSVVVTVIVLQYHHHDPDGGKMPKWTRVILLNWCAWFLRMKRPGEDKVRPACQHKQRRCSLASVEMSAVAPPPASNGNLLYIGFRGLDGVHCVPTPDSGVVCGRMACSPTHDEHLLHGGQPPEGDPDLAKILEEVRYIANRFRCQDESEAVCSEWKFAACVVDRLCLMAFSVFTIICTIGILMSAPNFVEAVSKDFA
SMILES,IC50,IC50 [1]
"Cc1nocc1S(=O)(=O)NC1(c2ccccc2)CCCCC1 [Compound 1, 3-Methyl-N-(1-phenylcyclohexyl)isoxazole-4-sulfonamide]",5700 nM,
"Cc1nocc1S(=O)(=O)NCCc1ccccc1 [Compound 2, 3-Methyl-N-phenethylisoxazole-4-sulfonamide]",,1700 nM
"Cc1nocc1S(=O)(=O)NCCc1ccc(F)cc1 [Compound 3, N-(4-Fluorophenethyl)-3-methylisoxazole-4-sulfonamide]",,2200 nM
Cc1nocc1S(=O)(=O)N1CCC(c2ccc(F)cc2)CC1 [Compound 7],,400 nM
"Cc1nocc1S(=O)(=O)N1CCN(c2ccc(F)cc2)CC1 [Compound 8, 4-(4-(4-Fluorophenyl)piperazin-1-ylsulfonyl)-3-methylisoxazole]",2200 nM,
"Cc1nocc1S(=O)(=O)N1CCN(c2ccccn2)CC1 [Compound 10, 3-Methyl-4-(4-(pyridin-2-yl)piperazin-1-ylsulfonyl)isoxazole]",,6500 nM
"Cc1nocc1S(=O)(=O)N1CCc2ccccc2CC1 [Compound 11, 3-Methyl-4-((1,2,4,5-tetrahydro-3H-benzo[d]azepin-3-yl)sulfonyl)isoxazole]",,2900 nM
